SMILES strings stand for the structures.

Common to all, as to assay type: in vivo
Test [1] concerns Alopecurus myosuroides (blackgrass). The test can be described thus: Preemergence field trial in perennial tree crops, % weed control. As to conditions: 206 days after application. Here is the method:
(§1) Field trials were conducted in rice and tree crops using standard herbicide small plot research methodology. Plot size was typical for small plot research, varying from 2 to 4 meters (m) wide by 6.7 to 10 meters long. There were 3 to 4 replicates per treatment. Soil types ranged from medium to fine soil texture. Rice or cereal crops were sown by mechanical direct dry seeding as per normal local cultural practices. The rice or cereal crop was grown using normal cultural practices for fertilization, watering, flooding and maintenance to ensure good growth of the crop and the weeds.
(§2) Treatments were applied by backpack sprayer using either compressed air or CO2, at spray pressures from 124 to 276 kilopascals (kPa). Spray tips were typically Flat Fan Teejet nozzles, such as TJ8002 to TJ110015 or XR11001. Spray volumes varied from 93.5 to 250 liters per hectare (L/ha). Penoxsulam was applied as the commercial products Grasp SC (240 gr ai/L) or Clipper 20 OD (20 grams ai/L); pendimethalin was applied as the commercial product Prowl EC.
(§3) For each treatment, the appropriate formulated product amount to treat the plot area, to achieve the desired application rate, based on unit area of application (hectare), was calculated, measured, and mixed in water prior to applying with the backpack sprayer. Treatments were rated as compared to the untreated control plots.
(§4) The treated plots and control plots were rated blind at various intervals after application. Ratings were based of Percent (%) Visual weed control, where 0 corresponds to no injury and 100 corresponds to complete kill.
(§5) Colby's equation was used to determine the herbicidal effects expected from the mixtures (Colby, S. R. Calculation of the synergistic and antagonistic response of herbicide combinations. Weeds 1967, 15, 20-22).
(§6) The following equation was used to calculate the expected activity of mixtures containing two active ingredients, A and B:
(§7) A=observed efficacy of active ingredient A at the same concentration as used in the mixture;
(§8) B=observed efficacy of active ingredient B at the same concentration as used in the mixture.

The next test concerns SEBEX. In words: Preemergence field trial in seeded rice, % visual weed control. The note with it: 22 to 54 days after application. As for the experimental part:
as §1, §2, §3, §4, §5, §6, §7, §8

The test system of test [2] is Ischaemum rugosum (saramollagrass). The description is as above. As to conditions: 60 days after application. As for the experimental part:
as §1, §2, §3, §4, §5, §6, §7, §8

The subject of test [3] is Alternanthera philoxeroides (alligatorweed). Described as above. As to conditions: USA, 22 to 54 days after application. As for the experimental part:
as §1, §2, §3, §4, §5, §6, §7, §8

Test [4] deals with Echinochloa colonum (junglerice). The description is as above. As to conditions: 60 days after application. As for the experimental part: as §1, §2, §3, §4, §5, §6, §7, §8
Test [5] deals with Ipomoea spp. (morningglory). Described as above. The note with it: Texas, USA, 22 to 54 days after application. Here is the method: as §1, §2, §3, §4, §5, §6, §7, §8

As for `CCC(CC)Nc1c([N+](=O)[O-])cc(C)c(C)c1[N+](=O)[O-]` [Pendimethalin, N-(1-ethylpropyl)-3,4-dimethyl-2,6-dinitrobenzenamine], the “% Control ALOMY Obs” value in test [1] (pendimethalin 500 gai/ha) turned out to be 0%; in test [1] (pendimethalin 1000 gai/ha) it was 7%. The “% Visual Control SEBEX Obs” value in the test on SEBEX (pendimethalin 1100 gai/ha) was 14%. Further, the “% Visual Control ISCRU Obs” value in test [2] (pendimethalin 750 gai/ha) is listed as 57%. Moreover, the “% Visual Control ALRPH Obs” value in test [3] (pendimethalin 1100 gai/ha, Arkansas) is recorded as 0%; in test [3] (pendimethalin 1100 gai/ha, Texas), 0%. The “% Visual Control ECHCO Obs” value in test [4] (pendimethalin 750 gai/ha) turned out to be 55%. In addition, the “% Visual Control IPOSS Obs” value in test [5] (pendimethalin 1100 gai/ha) stood at 35%.
For the compound `COc1cnc(OC)n2nc(NS(=O)(=O)c3c(OCC(F)F)cccc3C(F)(F)F)nc12` [Penoxsulam], the “% Control ALOMY Obs” value in test [1] (penoxsulam 10 gai/ha) turned out to be 0%; in test [1] (penoxsulam 20 gai/ha), 20%; in test [1] (penoxsulam 30 gai/ha), 43%; in test [1] (penoxsulam 40 gai/ha), 50%. The “% Visual Control SEBEX Obs” value in the test on SEBEX (penoxsulam 40 gai/ha) was determined as 40%. Besides, the “% Visual Control ISCRU Obs” value in test [2] (penoxsulam 30 gai/ha) was found to be 35%. Also, the “% Visual Control ALRPH Obs” value in test [3] (penoxsulam 20 gai/ha, Arkansas) was 43%; in test [3] (penoxsulam 20 gai/ha, Texas), 74%. Further, the “% Visual Control ECHCO Obs” value in test [4] (penoxsulam 20 gai/ha) turned out to be 25%. Further, the “% Visual Control IPOSS Obs” value in test [5] (penoxsulam 20 gai/ha) stood at 21%.
